Source: US5389645A, “Substituted tyrosyl diamine amide compounds” (G. D. Searle & Co., priority 1992, dated 1995)
Where a name gives a salt, the structure may show the parent alone.

Key:
δ opioid receptors = δ opioid receptors (Rattus norvegicus, UniProt P33533); assay: Opiate Binding Assay, displacement of 3[H]-DSLET from δ opioid receptors (rat forebrain membranes)
μ opioid receptors = μ opioid receptors (Rattus norvegicus, UniProt P33535); assay: Opiate Binding Assay, displacement of 3[H]-DAMPGO from μ opioid receptors (rat forebrain membranes)
Sequence of μ opioid receptors (P33535 whole entry): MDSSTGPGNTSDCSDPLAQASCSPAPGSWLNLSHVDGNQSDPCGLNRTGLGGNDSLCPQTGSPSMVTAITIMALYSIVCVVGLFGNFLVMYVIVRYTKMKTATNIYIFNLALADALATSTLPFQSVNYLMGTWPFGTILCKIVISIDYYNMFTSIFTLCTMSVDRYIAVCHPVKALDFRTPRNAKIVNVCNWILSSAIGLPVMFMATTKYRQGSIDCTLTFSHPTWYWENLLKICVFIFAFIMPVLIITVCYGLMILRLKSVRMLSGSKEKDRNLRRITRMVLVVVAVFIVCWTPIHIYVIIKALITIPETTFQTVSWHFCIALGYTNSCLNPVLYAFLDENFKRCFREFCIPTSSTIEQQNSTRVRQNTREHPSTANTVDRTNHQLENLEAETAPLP

mice = assay: Writhing Assay (phenylbenzoquinone-induced writhing, analgesia, s.c.); type: in vivo, mouse; details: for relative potency in the Writhing Assay: among compounds of the invention tested; for Number of Animals out of 10 Exhibiting Analgesia: subcutaneous, 5 mpk, PBQ, mice
Text: The "Writhing Assay" is one of the most widely-used experimental procedures for measuring the analgesic activity of different narcotic and nonnarcotic analgesic agents, and involves the continuous, chemically-induced pain of visceral origin to an animal, such as a mouse or rat. [Gyires et al., Arch. int. Pharmacodyn, 267, 131-140 (1984); C. Vander Wende et al., Fed. Proc., 15, 494 (1956); Koster et al., Fed. Proc., 18, 412 (1959); and Witken et al., J. Pharmacol. Exp. Ther., 153,400-408 (1961).] Chemicals which may be used to induce this pain include phenylbenzoquinone (PBQ) and acetic acid. As a result of the chemical irritation to the animal, a characteristic stretching and writhing of the animal (dorsiflexion of the animal's back, extension of its hindlimbs and the strong contraction of its abdominal musculature) will generally occur. […] Drugs which reduce the number of writhes of the animal appear to restore the normal nociceptive threshold of the animal.
This assay was conducted generally in the manner described by R. I. Taber, "Predictive Value of Analgesic Assays in Mice and Rats," Advances in Biochemical Psychopharmacology, 8, 191 (1974).
Two hundred CD Charles River mice, weighing 20 to 30 grams, were used in this assay.
Twenty-five minutes after subcutaneous administration to the mice of 10 mg per kilogram (mpk) of body weight of a tyrosyl diamine amide compound of the invention (hereinafter "test compound"), 0.1 mL per 10 g of body weight of a 0.025% w/v solution of phenylbenzoquinone (PBQ) was injected intraperitoneally into each mouse. Some mice were given saline in place of a test compound, and were used as a control group.
Five minutes later, each mouse was individually placed into a glass beaker for observation, and the number of writhes occurring during the following ten-minute period was counted.
A compound was considered to be "active" (to have produced analgesia in a mouse) if, after the administration of 10 mg per kilogram (mpk) of body weight of the compound to the mouse, the number of writhes elicited by a mouse injected with PBQ was equal to, or less than, one-half the median number of writhes recorded for the saline-treated control group of mice that day, as described by R. I. Taber, supra.
The standard initial screening dose of a test compound employed in this assay was 10 mpk […]. […] (The slopes of the dose-response curves for the compounds analyzed were compared as described by Tallarida and Murray, Manual of Pharmacologic Calculations, Page 11 (Springer Verlag, New York, 1981)).

[1] = extended use; cited from earlier work
[2] = tested on: the same receptor sites as do the opiates; details: cited from earlier work
[3] = antagonized by naloxone; cited from earlier work

Sequence of δ opioid receptors (P33533 whole entry): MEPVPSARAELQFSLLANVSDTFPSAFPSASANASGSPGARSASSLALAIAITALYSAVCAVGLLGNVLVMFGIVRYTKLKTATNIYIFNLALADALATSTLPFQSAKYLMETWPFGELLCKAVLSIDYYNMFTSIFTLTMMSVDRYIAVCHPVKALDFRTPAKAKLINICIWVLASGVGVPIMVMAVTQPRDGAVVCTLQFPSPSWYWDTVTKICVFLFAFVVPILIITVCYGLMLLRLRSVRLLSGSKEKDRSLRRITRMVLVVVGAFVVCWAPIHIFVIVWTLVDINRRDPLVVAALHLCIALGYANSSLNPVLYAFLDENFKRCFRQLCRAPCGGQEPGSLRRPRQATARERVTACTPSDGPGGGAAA

SMILES	IC50 (δ opioid receptors) [nM]	IC50 (μ opioid receptors) [nM]	other results
Cc1cc(O)cc(C)c1C[C@H](N)C(=O)NC(C)(C)CNC(=O)OCc1ccccc1 [Example 3, Phenylmethyl[2-[[2S-amino-3-(4-hydroxy-2,6-dimethylphenyl)-1-oxopropyl]amino]-2-methylpropyl]carbamate, monohydrochloride]	10	62	–
Cc1cc(O)cc(C)c1C[C@H](N)C(=O)NC(C)(C)CNC(=O)c1ccc2ccccc2n1 [Example 6, N-[2-[[2S-amino-3-(4-hydroxy-2,6-dimethylphenyl)-1-oxopropyl]amino]-2-methylpropyl]-2-quinolinecarboxamide, hydrochloride]	3.5	1.3	relative potency in the Writhing Assay (mice): the most potent compounds of the invention tested in the Writhing Assay; Number of Animals out of 10 Exhibiting Analgesia (mice): 10/10
Cc1cc(O)cc(C)c1C[C@H](N)C(=O)NC(C)(C)CNC(=O)c1cnc2ccccc2c1 [Example 8, N-[2-[[2S-amino-3-(4-hydroxy-2,6-dimethylphenyl)-1-oxopropyl]amino]-2-methylpropyl]-3-quinolinecarboxamide, hydrochloride]	25	< 10	–
Cc1cc(O)cc(C)c1C[C@H](N)C(=O)NC(C)(C)CNC(=O)NCc1ccccc1 [Example 10, αS-amino-N-[1,1-dimethyl-2-[[[(phenylmethyl)amino]carbonyl]amino]ethyl]-4-hydroxy.2,6-dimethylbenzenepropanamide, hydrochloride]	23.1	< 10	–
Cc1cc(O)cc(C)c1C[C@H](N)C(=O)NCC(C)(C)NC(=O)NCc1ccccc1 [Example 11, αS-amino-4-hydroxy-2,6-dimethyl-N-[2-methyl-2-[[[(phenylmethyl)amino]carbonyl]amino]propyl]benzenepropanamide, hydrochloride]	32.8	58.6	–
Cc1cc(O)cc(C)c1C[C@H](N)C(=O)NC(C)(C)CNC(=O)CCc1ccccc1 [Example 13, αS-amino-N-[1,1-dimethyl-2-[(1-oxo-3-phenylpropyl)amino]ethyl]-4-hydroxy-2,6-dimethylbenzenepropanamide, hydrochloride]	5.5	< 10	relative potency in the Writhing Assay (mice): the most potent compounds of the invention tested in the Writhing Assay; Number of Animals out of 10 Exhibiting Analgesia (mice): 10/10
Cc1cc(O)cc(C)c1C[C@H](N)C(=O)NCC(C)(C)NC(=O)CCc1ccccc1 [Example 14, αS-Amino-4-hydroxy-2,6-dimethyl-N-[2-methyl-2-[(1-oxo-3-phenylpropyl)amino]propyl]benzenepropanamide, hydrochloride]	66.3	26.3	–
Cc1cc(O)cc(C)c1C[C@H](N)C(=O)N1CCN(Cc2ccccc2)CC1 [Example 15, 1-[2S-Amino-3-(4-hydroxy-2,6-dimethylphenyl)-1-oxopropyl]-4-(phenylmethyl)piperazine, dihydrochloride]	14.9	4.5	–
Cc1cc(O)cc(C)c1C[C@H](N)C(=O)NC(C)(C)CNC(=O)C#Cc1ccccc1 [Example 18, S-Amino-N-[1,1-dimethyl-2-[(1-oxo-3-phenyl-2-propynyl)amino]ethyl]-4-hydroxy-2,6-dimethylbenzenepropanamide, monohydrochloride]	9.3	< 10	–
CC(=O)Nc1ccc(O)cc1 [acetaminophen]	–	–	undesirable side effects [1]: liver toxicity
CC(C)C[C@H](NC(=O)[C@H](Cc1ccccc1)NC(=O)CNC(=O)CNC(=O)[C@@H](N)Cc1ccc(O)cc1)C(=O)O [leucine enkephalin, H2 N-Tyr-Gly-Gly-Phe-Leu-OH]	–	–	binding to the same receptor sites as do the opiates [2]: bind to the same receptor sites as do the opiates; morphine-like actions [3]: exhibit some weak morphine-like actions
CSCC[C@H](NC(=O)[C@H](Cc1ccccc1)NC(=O)CNC(=O)CNC(=O)[C@@H](N)Cc1ccc(O)cc1)C(=O)O [methionine enkephalin, H2 N-Tyr-Gly-Gly-Phe-Met-OH]	–	–	binding to the same receptor sites as do the opiates [2]: bind to the same receptor sites as do the opiates; morphine-like actions [3]: exhibit some weak morphine-like actions
